Assay results as given in US20010046986A1, “Method for controlling flies” (priority 2000, published 2001).

Tested on: Musca domestica
Conditions: female Musca domestica imagoes of a sensitive strain; oral, 1 μL of 50 ppm liquid composition in 5% granulated sugar solution (0.05 μg clothianidin); after 24 hours
Description: Insecticidal test by oral administration to Musca domestica
A clothianidin solution in alcohol was diluted with 5% granulated sugar solution to prepare a 50 ppm liquid composition of clothianidin.
Female Musca domestica imagoes (ten flies) of a sensitive strain kept without water for 3˜4 hours were anesthetized and lightly fixed to a pressure sensitive adhesive sheet which was cut into strips. After the test insects came out from the anesthetic, 1 μL of the liquid composition (containing 0.05 μg of clothianidin) was released from an injection needle attached to a micro dropper so that the test insects inhaled the composition.

Compound: CN/C(=N\[N+](=O)[O-])NCc1cnc(Cl)s1 [clothianidin, (E)-1-(2-chloro-1,3-thiazol-5-ylmethyl)-3-methyl-2-nitroguanidine]
- insecticidal effect (flies dead): all flies were dead
